The results in this text go back to patent US20210032253A1, “PYRAZOLO[1,5-A][1,3,5]TRIAZINE-2-AMINE DERIVATIVE, PREPARATION METHOD THEREFOR AND MEDICAL USE THEREOF” (JIANGSU HENGRUI MEDICINE CO., LTD., priority 2018, published 2021).

Common to all, as to format: cell-based
Assay [1] deals with T1, adenosine A3 receptor (A3R) (Homo sapiens, UniProt P0DMS8).
T1 construct: expressed in transfected cells; host or cells: CHO-K1
T1 sequence (P0DMS8 1-318): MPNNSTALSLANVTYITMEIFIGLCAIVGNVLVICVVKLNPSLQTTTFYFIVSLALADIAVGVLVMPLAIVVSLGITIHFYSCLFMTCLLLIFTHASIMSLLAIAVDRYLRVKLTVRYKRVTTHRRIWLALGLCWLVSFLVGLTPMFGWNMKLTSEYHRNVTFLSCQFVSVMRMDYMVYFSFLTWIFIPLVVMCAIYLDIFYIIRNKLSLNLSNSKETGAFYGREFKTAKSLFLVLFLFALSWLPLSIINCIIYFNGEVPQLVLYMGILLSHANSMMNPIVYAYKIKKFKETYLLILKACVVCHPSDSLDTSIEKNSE
The assay is described as follows: Inhibition of adenosine A3 receptor cAMP signaling pathway in CHO-K1/A3R cells (HTRF cAMP dynamic 2 kit). Particulars: Table 3; for IC50: CHO-K1/A3R cells, cAMP, 10 μM forskolin, 5 nM 2Cl-IB-MECA; for IC50 ratio (A3R/A2aR): selectivity A3R over A2aR. The text has this:
(§1) Test Example 1. Determination of the inhibitory activities of the compounds of the present disclosure on the adenosine A2a receptor (A2aR) cAMP signaling pathway, the adenosine A1 receptor (A1R) cAMP signaling pathway and the adenosine A3 receptor (A3R) cAMP signaling pathway.
(§2) The inhibitory activities of the compounds of the present disclosure on the adenosine A2a receptor (A2aR) cAMP signaling pathway, the adenosine A1 receptor cAMP signaling pathway and the adenosine A3 receptor cAMP signaling pathway were determined by the following methods. The experimental method is briefly described as follows:
CHO-K1/A3R cells were cultured in DMEMIF12 medium containing 10% fetal bovine serum and 10 μg/mL puromycin. The cells were digested with the cell dissociation buffer during the experiment. The cells were resuspended in the HBSS buffer containing 20 mM HEPES and 0.1% bovine serum albumin and counted, and the cell density was adjusted to 5×10^5 cells/mL. In 384-well plates, each well was added with 12.5 μL of the cell suspension, and 6.25 μL of the test compounds (4× concentration) formulated with the HBSS buffer containing 20 mM HEPES, 0.1% bovine serum albumin, 54 μM rolipram and 2.7 U/mL adenosine deaminase, and the plates were incubated at room temperature for 30 minutes. Each well was then added with 6.25 μL of forskolin and 2Cl-IB-MECA (4× concentration) formulated with the HBSS buffer containing 20 mM HEPES, 0.1% bovine serum albumin, […] rolipram and 2.7 U/mL adenosine deaminase, and the plates were incubated at room temperature for 30 minutes. The final concentrations of the compounds were: 100000, 10000, 1000, 100, 10, 1, 0.1 and 0 nM. The final concentration of forskolin was 10 μM. The final concentration of 2Cl-IB-MECA was 5 nM. Intracellular cAMP concentration was determined with cAMP dynamic 2 kits. cAMP-d2 and Anti-cAMP—Eu-Cryptate were diluted respectively with the cAMP lysis buffer at a ratio of 1:4. Each well was added with 12.5 μL of the diluted cAMP-d2, followed by addition of 12.5 μL of the diluted Anti-cAMP—Eu-Cryptate, and the plates were incubated at room temperature in the dark for 1 hour. The HTRF signal values were read by the PHERAstar multi-function microplate reader. IC50 values for the inhibitory activities of the compounds were calculated by Graphpad Prism software, and are shown in Table 3.
(In TR-FRET formats the signal depends on donor and acceptor labels being close together.)

The target of assay [2] is T2, adenosine A2a receptor (A2aR) (Homo sapiens, UniProt P29274).
T2 construct: expressed in transfected cells; host or cells: CHO-K1
The assay is described as follows: Inhibition of adenosine A2a receptor cAMP signaling pathway in CHO-K1/A2aR cells (HTRF cAMP dynamic 2 kit). As to conditions: Table 1, 20 nM ethylcarbazole.
Source text: as §1, §2
CHO-K1/A2aR cells were cultured in DMEM/F12 medium containing 10% fetal bovine serum and 800 μg/mL Zeocin™. The cells were digested with the cell dissociation buffer during the experiment. The cells were resuspended in the HBSS buffer containing 20 mM HEPES and 0.1% bovine serum albumin and counted, and the cell density was adjusted to 10^6 cells/mL. In 384-well plates, each well was added with 5 μL of the cell suspension, and 2.5 µL of test compounds (4× concentration) formulated with the HBSS buffer containing 20 mM HEPES, 0.1% bovine serum albumin, 54 μM rolipram and 2.7 U/mL adenosine deaminase, and the plates were incubated at room temperature for 30 minutes. Each well was then added with 2.5 μL of ethylcarbazole (4× concentration) formulated with the balanced salt buffer containing 20 mM HEPES, 0.1% bovine serum albumin, 54 μM rolipram and 2.7 U/mL adenosine deaminase, and the plates were incubated at room temperature for 30 minutes. The final concentrations of the compounds were: 10000, 2000, 400, 80, 16, 3.2, 0.64, 0.128, 0.0256, 0.00512, and 0.001024 nM. The final concentration of ethylcarbazole was 20 nM. Intracellular cAMP concentration was determined with cAMP dynamic 2 kits. cAMP-d2 and Anti-cAMP—Eu-Cryptate were diluted respectively with the cAMP lysis buffer at a ratio of 1:4. Each well was added with 5 μL of the diluted cAMP-d2, followed by addition of 5 μL of the diluted Anti-cAMP—Eu-Cryptate, and the plates were incubated at room temperature in the dark for 1 hour. The HTRF signal values were read by the PHERAstar multi-function microplate reader.

For assay [3], the target named is T3, adenosine A1 receptor (A1R) (Homo sapiens, UniProt P30542).
T3 construct: expressed in transfected cells; host or cells: CHO-K1
T3 sequence (P30542 1-326): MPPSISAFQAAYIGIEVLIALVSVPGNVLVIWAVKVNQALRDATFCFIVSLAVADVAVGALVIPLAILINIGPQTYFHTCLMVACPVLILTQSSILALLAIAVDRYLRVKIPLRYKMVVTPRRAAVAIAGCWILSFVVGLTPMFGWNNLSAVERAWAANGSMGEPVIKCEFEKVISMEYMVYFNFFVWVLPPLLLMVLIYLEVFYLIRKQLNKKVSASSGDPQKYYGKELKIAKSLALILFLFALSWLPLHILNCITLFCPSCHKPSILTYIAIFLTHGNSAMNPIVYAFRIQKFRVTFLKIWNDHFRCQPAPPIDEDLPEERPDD
Kind of assay: Inhibition of adenosine A1 receptor cAMP signaling pathway in CHO-K1/A1R cells (HTRF cAMP dynamic 2 kit). Particulars: Table 2; for IC50: CHO-K1/A1R cells, cAMP, 10 μM forskolin, 10 nM CPA; for IC50 ratio (A1R/A2aR): selectivity A1R over A2aR.
Source text: as §1, §2
CHO-K1/A1R cells were cultured in DMEMIF12 medium containing 10% fetal bovine serum and 1 mg/mL G418. The cells were digested with the cell dissociation buffer during the experiment. The cells were then resuspended in the HBSS buffer containing 20 mM HEPES and 0.1% bovine serum albumin and counted, and the cell density was adjusted to 5×10^5 cells/mL. In 384-well plates, each well was added with 12.5 μL of the cell suspension, and 6.25 μL of the test compounds (4× concentration) formulated with the HBSS buffer containing 20 mM HEPES, 0.1% bovine serum albumin, 54 μM rolipram and 2.7 U/mL adenosine deaminase, and the plates were incubated at room temperature for 30 minutes. Each well was then added with 6.25 μL of forskolin and N6-cyclopentyladenosine (4× concentration) formulated with the HBSS buffer containing 20 mM HEPES, 0.1% bovine serum albumin, 54 μM rolipram and 2.7 U/mL adenosine deaminase, and the plates were incubated at room temperature for 30 minutes. The final concentrations of the compounds were: 100000, 10000, 1000, 100, 10, 1, 0.1 and 0 nM. The final concentration of forskolin was 10 μM. The final concentration of CPA was 10 nM. Intracellular cAMP concentration was determined with cAMP dynamic 2 kits. cAMP-d2 and Anti-cAMP—Eu-Cryptate were diluted respectively with the cAMP lysis buffer at a ratio of 1:4. Each well was added with 12.5 μL of the diluted cAMP-d2, followed by addition of 12.5 μL of the diluted Anti-cAMP—Eu-Cryptate, and the plates were incubated at room temperature in the dark for 1 hour. The HTRF signal values were read by the PHERAstar multi-function microplate reader.

T2 sequence (P29274 whole entry): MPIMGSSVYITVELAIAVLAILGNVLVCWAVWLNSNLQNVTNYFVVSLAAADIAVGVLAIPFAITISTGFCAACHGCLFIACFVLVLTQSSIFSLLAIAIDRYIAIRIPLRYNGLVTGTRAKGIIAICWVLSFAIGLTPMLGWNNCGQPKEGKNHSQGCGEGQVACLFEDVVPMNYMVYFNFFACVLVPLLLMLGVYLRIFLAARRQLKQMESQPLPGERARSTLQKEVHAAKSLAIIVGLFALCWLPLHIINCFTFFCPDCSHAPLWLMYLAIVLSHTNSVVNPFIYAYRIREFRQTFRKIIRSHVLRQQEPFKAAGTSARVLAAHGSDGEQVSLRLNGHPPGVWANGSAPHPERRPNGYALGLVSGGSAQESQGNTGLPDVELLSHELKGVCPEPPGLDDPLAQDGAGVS

As a reminder, the IC50 is the point on the concentration scale where inhibition reaches its midpoint. A low value points to higher potency. Take `Cc1ccc(-c2nc(N)nc3c(Sc4cccc(CO[C@H]5CCOC5)n4)cnn23)o1` [Example 28, (S)-4-(5-Methylfuran-2-yl)-8-((6-(((tetrahydrofuran-3-yl)oxy)methyl)pyridin-2-yl)thio)pyrazolo[1,5-a][1,3,5]triazin-2-amine]: the results for the IC50 in assay [1], in assay [2] and in assay [3] were 1150 nM, 2.13 nM and 595 nM, respectively. Besides, the “IC50 ratio (A3R/A2aR)” value in assay [1] is recorded as 540^. In assay [3], the “IC50 ratio (A1R/A2aR)” value is 279^.

For the compound `Cc1ccc(-c2nc(N)nc3c(Nc4cccc(CN5CCN(C)CC5)n4)cnn23)o1` [Example 29, 4-(5-Methylfuran-2-yl)-N^8-(6-((4-methylpiperazin-1-yl)methyl)pyridin-2-yl)pyrazolo[1,5-a][1,3,5]triazine-2,8-diamine], in assay [1], the IC50 is 2180 nM and the “IC50 ratio (A3R/A2aR)” value was 779^. In assay [2], the IC50 amounted to 2.8 nM. Besides, in assay [3], the IC50 was determined as 3690 nM and the “IC50 ratio (A1R/A2aR)” value is >10^3.

`Cc1ccc(-c2nc(N)nc3c(Cc4cccc(CO)n4)cnn23)o1` [Example 2, (6-((2-Amino-4-(5-methylfuran-2-yl)pyrazolo[1,5-a][1,3,5]triazin-8-yl)methyl)pyridin-2-yl)methanol]: in assay [1], half-maximal inhibition (IC50) was put at 2420 nM and the “IC50 ratio (A3R/A2aR)” value is recorded as >10^3. The compound further yielded an IC50 in assay [2] of 0.87 nM. Moreover, in assay [3], inhibition was half-maximal at 1100 nM (IC50) and the “IC50 ratio (A1R/A2aR)” value is listed as >10^3.

With `Cc1ccc(-c2nc(N)nc3c(Cc4cccc(CO[C@@H]5CCOC5)n4)cnn23)o1` [Example 6, (R)-4-(5-Methylfuran-2-yl)-8-((6-(((tetrahydrofuran-3-yl)oxy)methyl)pyridin-2-yl)methyl)pyrazolo[1,5-a][1,3,5]triazin-2-amine], in assay [1], the IC50 was found to be 4810 nM and the “IC50 ratio (A3R/A2aR)” value was >10^3. For the same compound, the IC50 in assay [2] came out at 0.4 nM. Also, in assay [3], the IC50 amounted to 316 nM and the “IC50 ratio (A1R/A2aR)” value is 790^.

Regarding `Cc1ccc(-c2nc(N)nc3c(Cc4cccc(CO[C@H]5CCOC5)c4)cnn23)o1` [Example 24, (S)-4-(5-Methylfuran-2-yl)-8-(3-(((tetrahydrofuran-3-yl)oxy)methyl)benzyl)pyrazolo[1,5-a][1,3,5]triazin-2-amine], the IC50 amounted to 2040 nM in assay [1], 1.2 nM in assay [2] and 2020 nM in assay [3]. Moreover, the “IC50 ratio (A3R/A2aR)” value in assay [1] is >10^3. The “IC50 ratio (A1R/A2aR)” value in assay [3] is >10^3.

As for `Nc1nc(-c2ccco2)n2ncc(Cc3ccccc3F)c2n1` [Example 10, 8-(2-Fluorobenzyl)-4-(furan-2-yl)pyrazolo[1,5-a][1,3,5]triazin-2-amine], in assay [1], the 50% inhibitory concentration (IC50) came out at 358 nM and the “IC50 ratio (A3R/A2aR)” value is 209^. Also, inhibition in assay [2] was half-maximal at 1.71 nM (IC50). Also, in assay [3], half-maximal inhibition (IC50) required 147 nM and the “IC50 ratio (A1R/A2aR)” value is 86^.
